Assay results: patent US8853418B2, “Cyclopentylpyrazoles as N-type calcium channel blockers” (Janssen Pharmaceutica NV, priority 2012, dated 2014)
Read-outs that look alike come from different tables or passages of the source.

What was measured:
[1] = target: N-type calcium channel (α1B (Cav2.2), β3 and α2δ subunits) (Homo sapiens, UniProt Q00975); experiment: Functional Assay: Antagonism of N-Type Calcium Channel (FDSS calcium mobilization, KCl depolarization); assay type: cell-based; details: for IC50: HEK cell line, 50 mM KCl depolarization, six-point concentration-response, read-out: FDSS IC50
N-type calcium channel (α1B (Cav2.2), β3 and α2δ subunits), sequence (Q00975 whole entry): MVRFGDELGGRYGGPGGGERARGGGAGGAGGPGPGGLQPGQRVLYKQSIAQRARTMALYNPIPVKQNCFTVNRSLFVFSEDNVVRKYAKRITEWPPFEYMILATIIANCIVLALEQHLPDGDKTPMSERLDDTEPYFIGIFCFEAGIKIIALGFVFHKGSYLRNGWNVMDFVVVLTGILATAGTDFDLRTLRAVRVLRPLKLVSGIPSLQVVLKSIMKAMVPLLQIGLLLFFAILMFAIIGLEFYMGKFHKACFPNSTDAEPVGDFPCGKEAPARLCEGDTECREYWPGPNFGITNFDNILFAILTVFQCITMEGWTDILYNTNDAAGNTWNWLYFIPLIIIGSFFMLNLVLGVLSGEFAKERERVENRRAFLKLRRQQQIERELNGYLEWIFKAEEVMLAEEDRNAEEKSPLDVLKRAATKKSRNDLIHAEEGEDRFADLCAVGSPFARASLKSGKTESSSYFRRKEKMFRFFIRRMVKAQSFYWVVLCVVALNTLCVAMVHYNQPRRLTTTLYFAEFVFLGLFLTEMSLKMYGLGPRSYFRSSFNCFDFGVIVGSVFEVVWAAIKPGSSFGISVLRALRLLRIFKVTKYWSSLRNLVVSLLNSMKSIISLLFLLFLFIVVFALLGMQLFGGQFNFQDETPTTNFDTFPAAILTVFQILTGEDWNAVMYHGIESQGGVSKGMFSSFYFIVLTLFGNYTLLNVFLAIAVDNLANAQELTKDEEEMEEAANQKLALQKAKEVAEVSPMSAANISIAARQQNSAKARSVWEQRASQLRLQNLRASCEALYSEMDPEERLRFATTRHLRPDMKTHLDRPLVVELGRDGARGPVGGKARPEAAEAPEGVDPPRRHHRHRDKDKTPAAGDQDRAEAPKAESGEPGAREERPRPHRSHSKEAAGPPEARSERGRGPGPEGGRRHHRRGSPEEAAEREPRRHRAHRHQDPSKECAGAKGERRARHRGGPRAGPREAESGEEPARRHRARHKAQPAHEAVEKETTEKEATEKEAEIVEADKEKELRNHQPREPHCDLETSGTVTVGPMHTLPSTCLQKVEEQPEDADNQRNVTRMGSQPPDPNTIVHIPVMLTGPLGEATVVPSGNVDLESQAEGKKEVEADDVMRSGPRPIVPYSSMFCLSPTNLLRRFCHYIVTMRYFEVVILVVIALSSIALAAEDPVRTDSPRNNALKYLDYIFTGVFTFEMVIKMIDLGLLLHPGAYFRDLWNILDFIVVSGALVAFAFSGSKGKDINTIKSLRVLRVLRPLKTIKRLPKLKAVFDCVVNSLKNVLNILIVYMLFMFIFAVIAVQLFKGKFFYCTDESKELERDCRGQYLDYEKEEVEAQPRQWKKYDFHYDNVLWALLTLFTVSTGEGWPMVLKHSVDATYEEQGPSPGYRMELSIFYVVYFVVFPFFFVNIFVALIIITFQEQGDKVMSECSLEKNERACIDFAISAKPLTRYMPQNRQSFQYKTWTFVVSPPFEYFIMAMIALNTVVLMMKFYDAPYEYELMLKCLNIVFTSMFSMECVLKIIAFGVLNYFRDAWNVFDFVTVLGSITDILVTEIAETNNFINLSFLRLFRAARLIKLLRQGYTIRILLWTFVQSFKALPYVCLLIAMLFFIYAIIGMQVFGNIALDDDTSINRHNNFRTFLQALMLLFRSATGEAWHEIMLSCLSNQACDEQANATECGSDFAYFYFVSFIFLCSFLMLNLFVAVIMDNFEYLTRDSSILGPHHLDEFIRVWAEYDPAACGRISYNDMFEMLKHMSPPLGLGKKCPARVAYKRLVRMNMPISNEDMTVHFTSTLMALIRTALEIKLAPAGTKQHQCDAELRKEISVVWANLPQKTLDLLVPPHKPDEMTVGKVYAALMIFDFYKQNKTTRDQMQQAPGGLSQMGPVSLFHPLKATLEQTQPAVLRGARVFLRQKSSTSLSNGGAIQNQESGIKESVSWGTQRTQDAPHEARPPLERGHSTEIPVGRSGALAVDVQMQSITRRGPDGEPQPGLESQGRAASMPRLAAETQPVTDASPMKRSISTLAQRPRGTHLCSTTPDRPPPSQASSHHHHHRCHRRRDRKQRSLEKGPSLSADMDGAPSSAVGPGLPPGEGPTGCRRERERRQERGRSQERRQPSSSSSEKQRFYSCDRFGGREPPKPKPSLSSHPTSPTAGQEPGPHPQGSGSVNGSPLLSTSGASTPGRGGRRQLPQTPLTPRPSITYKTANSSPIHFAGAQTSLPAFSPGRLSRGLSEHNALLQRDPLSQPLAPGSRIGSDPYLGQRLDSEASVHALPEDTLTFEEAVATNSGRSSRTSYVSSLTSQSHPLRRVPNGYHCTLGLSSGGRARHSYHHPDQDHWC
N-type calcium channel (α1B (Cav2.2), β3 and α2δ subunits), sequence (P54284 whole entry partner): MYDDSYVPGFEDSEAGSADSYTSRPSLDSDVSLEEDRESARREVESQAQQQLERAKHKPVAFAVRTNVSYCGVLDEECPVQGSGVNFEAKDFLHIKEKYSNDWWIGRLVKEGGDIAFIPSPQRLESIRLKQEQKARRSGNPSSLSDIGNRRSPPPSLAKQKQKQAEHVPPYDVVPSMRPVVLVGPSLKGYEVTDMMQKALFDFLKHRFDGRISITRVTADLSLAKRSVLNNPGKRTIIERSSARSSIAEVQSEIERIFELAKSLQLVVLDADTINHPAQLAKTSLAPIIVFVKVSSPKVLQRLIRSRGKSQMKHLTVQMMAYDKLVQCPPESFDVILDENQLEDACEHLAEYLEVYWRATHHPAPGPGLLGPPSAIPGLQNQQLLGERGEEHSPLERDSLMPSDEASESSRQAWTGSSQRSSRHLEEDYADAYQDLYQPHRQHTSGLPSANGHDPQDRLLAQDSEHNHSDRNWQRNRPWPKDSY
N-type calcium channel (α1B (Cav2.2), β3 and α2δ subunits), sequence (P54289 25-946 partner limits assumed): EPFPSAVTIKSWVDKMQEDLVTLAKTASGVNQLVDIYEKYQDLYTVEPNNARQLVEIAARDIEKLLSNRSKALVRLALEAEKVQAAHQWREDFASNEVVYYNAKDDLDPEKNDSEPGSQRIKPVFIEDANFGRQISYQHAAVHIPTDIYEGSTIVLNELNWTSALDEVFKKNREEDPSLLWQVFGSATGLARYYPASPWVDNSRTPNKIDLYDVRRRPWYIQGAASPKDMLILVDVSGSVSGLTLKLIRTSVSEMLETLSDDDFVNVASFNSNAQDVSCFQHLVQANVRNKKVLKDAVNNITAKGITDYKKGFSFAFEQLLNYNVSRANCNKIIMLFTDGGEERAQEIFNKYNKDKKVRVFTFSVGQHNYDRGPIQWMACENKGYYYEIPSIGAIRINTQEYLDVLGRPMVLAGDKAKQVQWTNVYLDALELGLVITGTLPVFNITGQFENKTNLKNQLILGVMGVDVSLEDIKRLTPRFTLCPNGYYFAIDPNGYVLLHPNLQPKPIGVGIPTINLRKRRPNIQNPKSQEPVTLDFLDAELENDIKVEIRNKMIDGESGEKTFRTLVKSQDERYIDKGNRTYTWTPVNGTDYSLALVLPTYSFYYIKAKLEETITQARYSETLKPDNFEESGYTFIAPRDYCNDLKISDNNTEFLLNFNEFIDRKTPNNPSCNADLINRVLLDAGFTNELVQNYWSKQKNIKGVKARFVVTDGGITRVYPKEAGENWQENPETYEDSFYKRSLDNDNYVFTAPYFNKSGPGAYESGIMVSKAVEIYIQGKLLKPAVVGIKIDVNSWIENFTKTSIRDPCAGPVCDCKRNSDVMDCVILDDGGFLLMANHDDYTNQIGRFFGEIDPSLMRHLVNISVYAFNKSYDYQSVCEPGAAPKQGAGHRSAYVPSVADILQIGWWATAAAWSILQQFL
N-type calcium channel (α1B (Cav2.2), β3 and α2δ subunits), sequence (P54289 947-1103 partner limits assumed): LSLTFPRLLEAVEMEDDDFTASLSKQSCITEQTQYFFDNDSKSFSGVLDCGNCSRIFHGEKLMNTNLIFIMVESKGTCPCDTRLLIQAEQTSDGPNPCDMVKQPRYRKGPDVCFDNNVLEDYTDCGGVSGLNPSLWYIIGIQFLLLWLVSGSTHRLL
In short: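 HEK cells stably co-expressing α1B (Cav2.2), β3 and α2δ were loaded with calcium dye, then given compound with fluorescence recorded for 5 min before 50 mM KCl depolarisation and 3 min more reading. IC50 came from six-point curves of maximal fluorescence, normalised to KCl maximum and buffer minimum.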

N-type calcium channel = N-type calcium channel (Homo sapiens, UniProt Q00975); experiment: Automated Electrophysiology Assay (QPatch-HT whole-cell patch clamp; low- and high-frequency stimulation); assay type: cell-based
N-type calcium channel, sequence (Q00975 whole entry): as the sequence (Q00975 whole entry) above
N-type calcium channel, sequence (P54284 whole entry partner): as the sequence (P54284 whole entry partner) above
N-type calcium channel, sequence (P54289 25-946 partner limits assumed): as the sequence (P54289 25-946 partner limits assumed) above
N-type calcium channel, sequence (P54289 947-1103 partner limits assumed): as the sequence (P54289 947-1103 partner limits assumed) above

[2] = high-frequency stimulation (15th pulse), read-out: QPatch at High Frequency % Inhibition
[3] = low frequency, read-out: QPatch at Low Frequency % Inhibition

Row | IC50 [1] | inhibition at 1 µM (N-type calcium channel; [2]) | inhibition at 1 µM (N-type calcium channel; [3]) | inhibition at 0.1 µM (N-type calcium channel; [2]) | inhibition at 0.1 µM (N-type calcium channel; [3]) | inhibition at 0.33 µM [1] | inhibition at 0.25 µM (N-type calcium channel; [2]) | inhibition at 0.25 µM (N-type calcium channel; [3]) | SMILES
1 | 7.5 nM |  |  | 53% | 47% |  |  |  | CCOc1ccccc1-n1nc2c(c1-c1ccc(Cl)cc1)CC(N1C(=O)CCC1=O)C2 (stereo not shown) [Compound 38, 1-[3-(4-chlorophenyl)-2-(2-ethoxyphenyl)-2,4,5,6-tetrahydrocyclopenta[c]pyrazol-5-yl]pyrrolidine-2,5-dione]
2 | 38 nM | 72% | 51% | 29% | 13% | 81% | 47% | 34% | CCOc1ccccc1-n1nc2c(c1-c1ccc(Cl)cc1)CC(n1ccnc1)C2 (stereo not shown) [Compound 39, 3-(4-chlorophenyl)-2-(2-ethoxyphenyl)-5-(1H-imidazol-1-yl)-2,4,5,6-tetrahydrocyclopenta[c]pyrazole]
3 | 24 nM |  |  | 60% | 58% | 92% |  |  | CCOc1ccccc1-n1nc2c(c1-c1ccc(Cl)cc1)CC(n1cc([Si](C)(C)C)nn1)C2 (stereo not shown) [Compound 41, 3-(4-chlorophenyl)-2-(2-ethoxyphenyl)-5-[4-(trimethylsilyl)-1H-1,2,3-triazol-1-yl]-2,4,5,6-tetrahydrocyclopenta[c]pyrazole]
4 | 19 nM | 87% | 86% |  |  | 91% |  |  | CCOc1ccccc1-n1nc2c(c1-c1ccc(Cl)cc1)CC(n1ccnn1)C2 (stereo not shown) [Compound 42, 3-(4-chlorophenyl)-2-(2-ethoxyphenyl)-5-(1H-1,2,3-triazol-1-yl)-2,4,5,6-tetrahydrocyclopenta[c]pyrazole]
5 | 42 nM |  |  | 5% | -22% | 87% |  |  | CCOc1ccccc1-n1nc2c(c1-c1ccc(Cl)cc1)C[C@@H](n1ccnc1)C2 [Compound 43, (5R)-3-(4-chlorophenyl)-2-(2-ethoxyphenyl)-5-(1H-imidazol-1-yl)-2,4,5,6-tetrahydrocyclopenta[c]pyrazole]
6 | 32 nM |  |  | 48% | 42% | 89% |  |  | CCOc1ccccc1-n1nc2c(c1-c1ccc(Cl)cc1)C[C@@H](NS(=O)(=O)C(C)C)C2 [Compound 44, N-[(5R)-3-(4-chlorophenyl)-2-(2-ethoxyphenyl)-2,4,5,6-tetrahydrocyclopenta[c]pyrazol-5-yl]propane-2-sulfonamide]
7 | 4 nM |  |  | 68% | 60% | 94% |  |  | CCOc1ccccc1-n1nc2c(c1-c1ccc(Cl)cc1)C[C@@H](NC(=O)C(F)(F)F)C2 [Compound 45, N-[(5R)-3-(4-chlorophenyl)-2-(2-ethoxyphenyl)-2,4,5,6-tetrahydrocyclopenta[c]pyrazol-5-yl]-2,2,2-trifluoroacetamide]
8 | 2.6 nM |  |  | 50% | 21% | 99% |  |  | CCOc1ccccc1-n1nc2c(c1-c1ccc(Cl)cc1)C[C@@H](N(C)S(=O)(=O)N(C)C)C2 [Compound 46, N-[(5R)-3-(4-chlorophenyl)-2-(2-ethoxyphenyl)-2,4,5,6-tetrahydrocyclopenta[c]pyrazol-5-yl]-N,N′,N′-trimethylsulfamide]
9 | 4 nM |  |  | 19% | 15% | 92% |  |  | CCOc1ccccc1-n1nc2c(c1-c1ccc(Cl)cc1)CC(NS(=O)(=O)N(C)C)C2 (stereo not shown) [Compound 47, N′-[3-(4-chlorophenyl)-2-(2-ethoxyphenyl)-2,4,5,6-tetrahydrocyclopenta[c]pyrazol-5-yl]-N,N-dimethylsulfamide]
10 | 1.2 nM |  |  | 63% | 52% | 97% |  |  | CCOc1ccccc1-n1nc2c(c1-c1ccc(Cl)cc1)CC(N(C)S(=O)(=O)N(C)C)C2 (stereo not shown) [Compound 48, N-[3-(4-chlorophenyl)-2-(2-ethoxyphenyl)-2,4,5,6-tetrahydrocyclopenta[c]pyrazol-5-yl]-N,N′,N′-trimethylsulfamide]
11 | 14 nM |  |  | 41% | 33% | 95% |  |  | CN(C)S(=O)(=O)N(C)[C@@H]1Cc2nn(-c3cccc4c3OCC4)c(-c3ccc(Cl)cc3)c2C1 [Compound 50, N-[(5S)-3-(4-chlorophenyl)-2-(2,3-dihydro-1-benzofuran-7-yl)-2,4,5,6-tetrahydrocyclopenta[c]pyrazol-5-yl]-N,N′,N′-trimethylsulfamide]
12 | 34 nM | 66% | 49% |  |  | 94% |  |  | CC(C)S(=O)(=O)N(C)[C@@H]1Cc2nn(-c3cccc4c3OCC4)c(-c3ccc(Cl)cc3)c2C1 [Compound 51, N-[(5S)-3-(4-chlorophenyl)-2-(2,3-dihydro-1-benzofuran-7-yl)-2,4,5,6-tetrahydrocyclopenta[c]pyrazol-5-yl]-N-methylpropane-2-sulfonamide]
13 | 50 nM | 67% | 55% |  |  | 86% |  |  | COc1ccccc1-n1nc2c(c1-c1ccc(Cl)cc1)CC1(C2)OCCCO1 [Compound 54, 3-(4-chlorophenyl)-2-(2-methoxyphenyl)-2,6-dihydro-4H-spiro[cyclopenta[c]pyrazole-5,2′-[1,3]dioxane]]

More lines, now with the values behind:

Row | SMILES | IC50 [1] | inhibition at 1 µM (N-type calcium channel; [2]) | inhibition at 1 µM (N-type calcium channel; [3]) | inhibition at 0.1 µM (N-type calcium channel; [2]) | inhibition at 0.1 µM (N-type calcium channel; [3]) | inhibition at 0.33 µM [1] | inhibition at 0.25 µM (N-type calcium channel; [2]) | inhibition at 0.25 µM (N-type calcium channel; [3])
14 | COc1ccccc1-n1nc2c(c1-c1ccc(Cl)cc1)CC(CCNC(=O)OC(C)(C)C)C2 (stereo not shown) [Compound 13, tert-butyl{2-[3-(4-chlorophenyl)-2-(2-methoxyphenyl)-2,4,5,6-tetrahydrocyclopenta[c]pyrazol-5-yl]ethyl}carbamate] | 38 nM | 67% | 42% |  |  |  |  | 
15 | CCc1ccccc1-n1nc2c(c1-c1ccc(Cl)cc1)CC(CNC(=O)OC(C)(C)C)C2 (stereo not shown) [Compound 16, tert-butyl{[3-(4-chlorophenyl)-2-(2-ethylphenyl)-2,4,5,6-tetrahydrocyclopenta[c]pyrazol-5-yl]methyl}carbamate] | 130 nM | 43% | 19% |  |  |  |  | 
16 | O=C1Cc2nn(-c3ccccc3OC(F)(F)F)c(-c3ccc(Cl)cc3)c2C1 [Compound 27, 3-(4-chlorophenyl)-2-[2-(trifluoromethoxy)phenyl]-2,6-dihydrocyclopenta[c]pyrazol-5(4H)-one] | 11 nM |  |  | -14% | -16% |  |  | 
17 | COc1ccccc1-n1nc2c(c1-c1ccc(Cl)cc1)CC(OC(=O)N(C)C)C2 (stereo not shown) [Compound 28, 3-(4-chlorophenyl)-2-(2-methoxyphenyl)-2,4,5,6-tetrahydrocyclopenta[c]pyrazol-5-yl dimethylcarbamate] | 15 nM |  |  | 45% | 25% |  |  | 
18 | COc1ccccc1-n1nc2c(c1-c1ccc(Cl)cc1)CC(OC(=O)N1CCOCC1)C2 (stereo not shown) [Compound 29, 3-(4-chlorophenyl)-2-(2-methoxyphenyl)-2,4,5,6-tetrahydrocyclopenta[c]pyrazol-5-yl morpholine-4-carboxylate] | 43 nM |  |  | 21% | -8% |  |  | 
19 | CCOc1ccccc1-n1nc2c(c1-c1ccc(Cl)cc1)CC(OC(=O)N(C)C)C2 (stereo not shown) [Compound 30, 3-(4-chlorophenyl)-2-(2-ethoxyphenyl)-2,4,5,6-tetrahydrocyclopenta[c]pyrazol-5-yl dimethylcarbamate] | 28 nM |  |  | 25% | 9% |  |  | 
20 | CCOc1ccccc1-n1nc2c(c1-c1ccc(Cl)cc1)CC(OC(=O)N1CCOCC1)C2 (stereo not shown) [Compound 31, 3-(4-chlorophenyl)-2-(2-ethoxyphenyl)-2,4,5,6-tetrahydrocyclopenta[c]pyrazol-5-yl morpholine-4-carboxylate] | 18 nM |  |  | 22% | 14% |  |  | 
21 | COc1ccccc1-n1nc2c(c1-c1ccc(Cl)cc1)CC(NS(C)(=O)=O)C2 (stereo not shown) [Compound 32, N-[3-(4-chlorophenyl)-2-(2-methoxyphenyl)-2,4,5,6-tetrahydrocyclopenta[c]pyrazol-5-yl]methanesulfonamide] | 26 nM |  |  | 20% | 18% |  |  | 
22 | COc1ccccc1-n1nc2c(c1-c1ccc(Cl)cc1)CC(NS(=O)(=O)C(C)C)C2 (stereo not shown) [Compound 33, N-[3-(4-chlorophenyl)-2-(2-methoxyphenyl)-2,4,5,6-tetrahydrocyclopenta[c]pyrazol-5-yl]propane-2-sulfonamide] | 18 nM |  |  | 42% | 35% |  |  | 
23 | COc1ccccc1-n1nc2c(c1-c1ccc(Cl)cc1)CC(NS(=O)(=O)N(C)C)C2 (stereo not shown) [Compound 34, N′-[3-(4-chlorophenyl)-2-(2-methoxyphenyl)-2,4,5,6-tetrahydrocyclopenta[c]pyrazol-5-yl]-N,N-dimethylsulfamide] | 14 nM |  |  | 37% | 34% |  |  | 
24 | CCOc1ccccc1-n1nc2c(c1-c1ccc(Cl)cc1)CC(=O)C2 [Compound 36, 3-(4-chlorophenyl)-2-(2-ethoxyphenyl)-2,6-dihydrocyclopenta[c]pyrazol-5(4H)-one] | 29 nM |  |  | 26% | 18% |  |  | 
25 | COc1ccccc1-n1nc2c(c1-c1ccc(Cl)cc1)CC(N(C)S(C)(=O)=O)C2 (stereo not shown) [Compound 37, N-[3-(4-chlorophenyl)-2-(2-methoxyphenyl)-2,4,5,6-tetrahydrocyclopenta[c]pyrazol-5-yl]-N-methylmethanesulfonamide] | 6.4 nM |  |  | 46% | 44% |  |  | 
